Here are results for 30 molecules from patent US10499641B2 (priority 2010, dated 2019).

Structures are written as SMILES.

For data set [1] the following is noted: pH 7.8.
In a further data set the test system is Phytophthora infestans. The class given is in vivo. The conditions noted are these: young tomato plants, sprayed, active ingredient concentration 100 ppm, inoculated 1 day after treatment, evaluation 7 days after inoculation; 100% = no infection.
In the next data set the test system is Peronospora brassicae. The experiment in a line: Peronospora test (oilseed rape seeds)/seed treatment. The class given is in vivo. The conditions noted are these: dose 50 g/dt, 14-day-old plants inoculated, incubated 7 days, infected leaf area, 100% = no disease. Here is the method:
Peronospora Test (Oilseed Rape Seeds)/Seed Treatment
The test was conducted under greenhouse conditions.
Oilseed rape seeds treated with an inventive active compound or a combination of inventive active compounds dissolved in N-methyl-2-pyrrolidone and diluted with water to the desired dose were sown in 6*6 cm vessels. The vessels contain 4 cm of a 1:1 mixture of steam-treated field soil and sand. The plants grew at 10° C.
14-day-old plants were inoculated with an aqueous spore suspension of Peronospora brassicae. The vessels containing the plants were incubated in a greenhouse at a temperature of 15° C. and a relative air humidity of 100% for 7 days.
The assessment of the test included the evaluation of the infected leaf area per plant. 0% means an efficiency corresponding to that of the control, while an efficiency of 100% means that no disease is observed.

The next data set deals with Plasmopara viticola. The experiment in a line: Plasmopara test (grapevine)/protective. The class given is in vivo. Conditions: young grapevine plants, sprayed, active ingredient concentration 10 ppm, evaluation 6 days after inoculation; 100% = no infection. Here is the method:
Plasmopara Test (Grapevine)/Protective
• Solvent: 24.5 parts by weight of acetone • 24.5 parts by weight of dimethylacetamide • Emulsifier: 1 part by weight of alkylaryl polyglycol ether
[To produce an appropriate active ingredient formulation, 1 part by weight of active ingredient is mixed with the specified amounts of solvent and emulsifier, and the concentrate is diluted with water to the desired concentration.
To test for protective efficacy, young plants are sprayed with the active ingredient formulation at the stated application rate. After the spray coating has dried on, the plants are inoculated with an aqueous spore suspension of Plasmopara viticola and then remain in an incubation cabin at approx. 20° C. and 100% relative air humidity for 1 day. Subsequently, the plants are placed in a greenhouse at approx. 21° C. and approx. 90% air humidity for 4 days. The plants are then moistened and placed in an incubation cabin for 1 day.
Evaluation follows 6 days after the inoculation. 0% means an efficacy which corresponds to that of the control, whereas an efficacy of 100% means that no infection is observed.
In this test, the following inventive compounds show, at an active ingredient concentration of 10 ppm, an efficacy of 70% or more: […]

With `C[Si](C)(C)C#CCOc1ccccc1C1CC(c2csc(C3CCN(C(=O)Cn4nc(C(F)F)cc4C(F)F)CC3)n2)=NO1` (centres unmarked) [Example I-1, 2-[3,5-Bis(difluoromethyl)-1H-pyrazol-1-yl]-1-(4-{4-[5-(2-{[3-(trimethylsilyl)prop-2-yn-1-yl]oxy}phenyl)-4,5-dihydro-1,2-oxazol-3-yl]-1,3-thiazol-2-yl]piperidin-1-yl}ethanone], in data set [1], the “logp [b]” value is 4.58[b].

Consider `CC(C)(C)OC(=O)Nc1ccc(C2CC(c3csc(C4CCN(C(=O)Cn5nc(C(F)F)cc5C(F)F)CC4)n3)=NO2)cc1` (centres unmarked) [Example I-17, tert-Butyl (4-{3-[2-(1-{[3,5-bis(difluoromethyl)-1H-pyrazol-1-yl]acetyl}piperidin-4-yl)-1,3-thiazol-4-yl]-4,5-dihydro-1,2-oxazol-5-yl}phenyl)carbamate], for which the Eff. % in the data set with Phytophthora infestans came to 100%. Moreover, the “logp [b]” value in data set [1] was 3.46[b].

On to `Cc1cc(C(F)(F)F)nn1CC(=O)N1CCC(c2nc(C3=NOC(c4ccccc4C=NO)C3)cs2)CC1` (mixture of isomers) [Example I-38], for which the figures for the Eff. % in the data set on Phytophthora infestans, in the data set with Peronospora brassicae and with Plasmopara viticola were 100%, 86% and 95%, respectively.

`Cc1cc(C(F)(F)F)nn1CC(=O)N1CCC(c2nc(C3=NOC(c4ccccc4OS(=O)(=O)C4CC4)C3)cs2)CC1` (centres unmarked) [Example I-61]: the Eff. % in the data set on Phytophthora infestans is 89%; in the data set with Peronospora brassicae it was 90%; in the data set with Plasmopara viticola, 100%.

As a reminder, the chromatographic logP is lipophilicity estimated from chromatographic retention. For `CC(=NO)c1ccccc1C1CC(c2csc(C3CCN(C(=O)Cn4nc(C(F)(F)F)cc4C)CC3)n2)=NO1` (centres unmarked) [Example I-40, 1-[4-(4-{5-[2-(N-Hydroxyethanimidoyl)phenyl]-4,5-dihydro-1,2-oxazol-3-yl}-1,3-thiazol-2-yl)piperidin-1-yl]-2-[5-methyl-3-(trifluoromethyl)-1H-pyrazol-1-yl]ethanone], the Eff. % with Phytophthora infestans was found to be 100%; with Plasmopara viticola, 90%. Besides, the chromatographic logP in the data set “physchem” (pH 2.7) is 2.92.

On to `Cc1cc(C(F)(F)F)nn1CC(=O)N1CCC(c2nc(C3=NOC(c4ccccc4OS(C)(=O)=O)C3)cs2)CC1` (centres unmarked) [Example I-62], for which the Eff. % with Phytophthora infestans was determined as 89%; with Peronospora brassicae, 90%; in the data set with Plasmopara viticola, 100%.

`O=C(Cn1nc(C(F)F)cc1C(F)F)N1CCC(c2nc(C3=NOC(c4ccccc4C=NO)C3)cs2)CC1` (mixture of isomers) [Example I-4]: the figures for the Eff. % in the data set on Phytophthora infestans, with Peronospora brassicae and in the data set on Plasmopara viticola were 100%, 92% and 100%, respectively.

Take `CSCOc1ccccc1C1CC(c2csc(C3CCN(C(=O)Cn4nc(C(F)F)cc4C(F)F)CC3)n2)=NO1` (centres unmarked) [Example I-112]: the values for the Eff. % with Phytophthora infestans and in the data set with Plasmopara viticola were 94% and 100%, respectively.

The molecule `O=C(Cn1nc(C(F)F)cc1C(F)F)N1CCC(c2nc(C3=NOC(c4ccccc4OCC#Cc4cccc5ccccc45)C3)cs2)CC1` (centres unmarked) [Example I-2, 2-[3,5-Bis(difluoromethyl)-1H-pyrazol-1-yl]-1-(4-{4-[5-(2-{[3-(1-naphthyl)prop-2-yn-1-yl]oxy}phenyl)-4,5-dihydro-1,2-oxazol-3-yl]-1,3-thiazol-2-yl}piperidin-1-yl)ethanone] yielded an Eff. % with Phytophthora infestans of 100%. The results for the chromatographic logP in “physchem” (pH 2.7) and in “physchem” (pH 7.8) were 4.81 and 4.68, respectively.

For `Cc1cc(C(F)(F)F)nn1CC(=O)N1CCC(c2nc(C3=NOC(c4c(F)cccc4OCC#N)C3)cs2)CC1` (centres unmarked) [Example I-86], the Eff. % in the data set with Phytophthora infestans stood at 75%; with Plasmopara viticola, 99%.

For the molecule `CON=Cc1ccccc1C1CC(c2csc(C3CCN(C(=O)Nc4cc(Cl)ccc4C)CC3)n2)=NO1` (centres unmarked) [Example I-41, N-(5-Chloro-2-methylphenyl)-4-[4-(5-{2-[(methoxyimino)methyl]phenyl}-4,5-dihydro-1,2-oxazol-3-yl)-1,3-thiazol-2-yl]piperidine-1-carboxamide], the Eff. % was determined as 100% in the data set with Phytophthora infestans and 81% in the data set with Plasmopara viticola.

In the case of `C=CC(=O)Oc1ccccc1C1CC(c2csc(C3CCN(C(=O)Cn4nc(C(F)F)cc4C(F)F)CC3)n2)=NO1` (centres unmarked) [Example I-116], the Eff. % turned out to be 98% with Phytophthora infestans and 100% with Plasmopara viticola.

As to `Cc1cc(C(F)(F)F)nn1CC(=O)N1CCC(c2nc(C3=NOC(c4ccccc4OS(=O)(=O)C(F)(F)F)C3)cs2)CC1` (centres unmarked) [Example I-125], the Eff. % is reported as 89% in the data set on Phytophthora infestans and 100% in the data set with Plasmopara viticola.

In the case of `O=CNc1ccccc1C1CC(c2csc(C3CCN(C(=O)Cc4cc(C(F)F)ccc4C(F)F)CC3)n2)=NO1` (centres unmarked) [Example I-123], the Eff. % was found to be 100% in the data set on Phytophthora infestans and 73% with Plasmopara viticola.

As for `CCS(=O)(=O)Oc1ccccc1C1CC(c2csc(C3CCN(C(=O)Cn4nc(C(F)F)cc4C(F)F)CC3)n2)=NO1` (centres unmarked) [Example I-65], the Eff. % came out at 100% in the data set on Phytophthora infestans, 90% with Peronospora brassicae and 100% in the data set with Plasmopara viticola.

For `C#CCOCc1ccccc1C1CC(c2csc(C3CCN(C(=O)Cn4nc(C(F)(F)F)cc4C)CC3)n2)=NO1` (centres unmarked) [Example I-46], the Eff. % in the data set with Phytophthora infestans and in the data set on Plasmopara viticola was 94% in each case.

On to `Cc1ccc(Cl)cc1NC(=O)N1CCC(c2nc(C3=NOC(c4ccccc4C=NO)C3)cs2)CC1` (mixture of isomers) [Example I-36], for which the Eff. % in the data set on Phytophthora infestans and with Plasmopara viticola was 100% each time.

With `CON=C(C)c1cccc(C2CC(c3csc(C4CCN(C(=O)Cn5nc(C(F)F)cc5C(F)F)CC4)n3)=NO2)c1` (mixture of isomers) [Example I-21], the Eff. % in the data set on Phytophthora infestans and with Plasmopara viticola was 100% each time.

With `CON=Cc1cccc(F)c1C1CC(c2csc(C3CCN(C(=O)Cn4nc(C(F)(F)F)cc4C)CC3)n2)=NO1` (centres unmarked) [Example I-118], the Eff. % is reported as 95% in the data set on Phytophthora infestans and 100% in the data set on Plasmopara viticola.

For `N#CCOc1ccc(C2CC(c3csc(C4CCN(C(=O)Cn5nc(C(F)F)cc5C(F)F)CC4)n3)=NO2)cc1` (centres unmarked) [Example I-81], the Eff. % in the data set with Phytophthora infestans was 100%; in the data set on Plasmopara viticola, 99%.

Turning to `N#CCOc1ccccc1C1CC(c2csc(C3CCN(C(=O)Cn4nc(C(F)F)cc4C(F)F)CC3)n2)=NO1` (centres unmarked) [Example I-63], the figures for the Eff. % in the data set on Phytophthora infestans and in the data set with Plasmopara viticola were 94% and 100%, respectively.

For the molecule `Cc1cc(C(F)(F)F)nn1CC(=O)N1CCC(c2nc(C3=NOC(c4c(Cl)cccc4OS(C)(=O)=O)C3)cs2)CC1` (centres unmarked) [Example I-103], the Eff. % in the data set with Phytophthora infestans is 80%; in the data set on Plasmopara viticola it was 100%.

For the molecule `Cc1cc(C(F)(F)F)nn1CC(=O)N1CCC(c2nc(C3=NOC(c4c(Cl)cccc4OCC#N)C3)cs2)CC1` (centres unmarked) [Example I-78], the Eff. % was 80% with Phytophthora infestans and 97% with Plasmopara viticola.

Consider `O=C(Cn1nc(C(F)F)cc1C(F)F)N1CCC(c2nc(C3=NOC(c4cc(F)ccc4OS(=O)(=O)C4CC4)C3)cs2)CC1` (centres unmarked) [Example I-84], for which the Eff. % in the data set on Phytophthora infestans was found to be 90%; with Plasmopara viticola it was 100%.

As for `CN(C)C(=S)c1ccccc1C1CC(c2csc(C3CCN(C(=O)Cn4nc(C(F)F)cc4C(F)F)CC3)n2)=NO1` (centres unmarked) [Example I-127], the Eff. % in the data set on Phytophthora infestans came out at 97%; in the data set on Plasmopara viticola, 96%.

On to `O=C(Cn1nc(C(F)F)cc1C(F)F)N1CCC(c2nc(C3=NOC(c4cccc(OS(=O)(=O)C5CC5)c4)C3)cs2)CC1` (centres unmarked) [Example I-83], for which the Eff. % worked out at 98% with Phytophthora infestans and 94% in the data set with Plasmopara viticola.

As for `CON=Cc1cccc(F)c1C1CC(c2csc(C3CCN(C(=O)Cn4nc(C(F)F)cc4C(F)F)CC3)n2)=NO1` (centres unmarked) [Example I-60], the values for the Eff. % with Phytophthora infestans, in the data set with Peronospora brassicae and with Plasmopara viticola were 84%, 95% and 100%, respectively.

Take `CCON=Cc1ccccc1C1CC(c2csc(C3CCN(C(=O)Cn4nc(C(F)F)cc4C(F)F)CC3)n2)=NO1` (mixture of isomers) [Example I-27]: the values for the Eff. % with Phytophthora infestans and in the data set on Plasmopara viticola were 100% and 99%, respectively.

As for `CS(=O)(=O)Oc1ccccc1C1CC(c2csc(C3CCN(C(=O)Cn4nc(C(F)F)cc4C(F)F)CC3)n2)=NO1` (centres unmarked) [Example I-124], the Eff. % with Phytophthora infestans, in the data set on Peronospora brassicae and in the data set on Plasmopara viticola was 100% each time.

With `CON=C(C)c1cccc(C2CC(c3csc(C4CCN(C(=O)Cn5nc(C(F)(F)F)cc5C)CC4)n3)=NO2)c1` (centres unmarked) [Example I-3], the Eff. % with Phytophthora infestans was 100%; in the data set on Plasmopara viticola it was 97%.
